How the values were obtained:
SMN2 [1] = experiment: SMN2 splice-switching for exon 7 inclusion by RT-qPCR in SMA Type I patient-derived fibroblasts (Example 2); format: cell-based, human; conditions: for level of exon-7 inclusion activity (full length SMN2/HPRT1, normalised to untreated control set to 1): treated 4 hrs, then 20 hrs growth medium, mean±SEM
Description: FIG. 3. (A) SMN2 pre-mRNA exon-7 skipping and production of 80-90% SMN2Δ7 mRNA transcripts. Peptide-PMO binding to Intron-splicing silencer (ISS-N1) and restoration of SMN2 splicing and production of full-length SMN2 mRNA transcripts. The positions of forward and reverse primers highlighted on full-length mRNA. (B)-(C) Effect of administration of peptides linked to PMO for SMN2 exon 7 inclusion, measured as change in the level of full length SMN2/HPRT1 in SMA patient-derived fibroblasts, each at two concentrations, 0.5 μM and 1 μM (or 1 μM and 5 μM in the case of PMO alone). UT, untreated. (B) For PMO constructs, from left to right: PMO; ApoE(141-150)-PMO; ApoE(133-150)-PMO. (C) For PMO constructs, from left to right: PMO; HA2-PMO; GALA-PMO; NLS-PMO; ApoE(141-150)-PMO; HA2-ApoE(141-150)-PMO; GALA-ApoE(141-150)-PMO; NLS-ApoE(141-150)-PMO; H4-ApoE(141-150)-PMO; A4-ApoE(141-150)-PMO. *P<0.05,**P<0.001, ***P<0.0001 cf. Untreated (control) and PMO (1 and 5 μM); #P<0.001 cf. GALA-/NLS-/H4-ApoE(141-150)-PMO (1 μM), ^<0.001 cf. ApoE(133-150)-PMO (0.5 and 1 μM), ^OP<0.001 cf. ApoE(141-150)-PMO (1 μM), ^&P<0.05 cf.
The inventors then evaluated cellular uptake and activity of these peptide-PMO conjugates in SMA Type I patient-derived fibroblasts with two copies of SMN2. Efficiency of uptake was assessed by RT-qPCR using SMN2 splice-switching for exon 7 inclusion (see FIG. 3A).
SMA Type I patient-derived fibroblasts (SMN2^+/+, GM03813, Coriell Cell Repositories) were maintained in Dulbecco's Modified Eagle's Medium (DMEM), supplemented with 10% foetal bovine serum (FBS), 1% Penicillin/Streptomycin and 1% L-glutamine (L-glu) at 37° C. Cells were plated in 6-well plates at a density of 3×10^5/well in 6 well plates one day prior to treatment with PMO and peptide-PMO conjugates. Cells used were from passage 8-22. PMO and the peptide-PMO conjugates were dissolved in nuclease-free water and diluted to appropriate concentrations in Opti-MEM reduced serum medium. Cells were treated for 4 hrs at 37° C. The transfection medium was then removed and replaced with growth medium in which the cells were incubated for 20 hrs.
Cells were washed with PBS and total cellular RNA was extracted using Trizol (TRI Reagent®, Sigma) according to the manufacturer's instructions (Life Technologies). 400 ng purified RNA was reverse transcribed into cDNA using BioRad iScript Reverse Transcription Supermix kit according to the manufacturer's instructions. The reverse transcription was performed using the Veriti Thermal Cycler (ThermoFisher Scientific) with the thermal cycling conditions: 25° C. for 5 min, 46° C. for 20 min, 95° C. for 1 min followed by a 4° C. holding period.
Quantitative PCR (20 ng cDNA/well) was carried out in a 96-well plate in triplicate using SsoAdvanced Universal SYBR Green Supermix on a Biorad CFX96 Touch™ Real-Time PCR detection system. The amplification was carried out using full-length SMN2-specific primers: Ex-6 Forward 5′-[…]-3′ (SEQ ID NO:10) and Ex7-8 reverse 5′[…]-3′ (SEQ ID NO:11). Human HPRT1 was used as the internal reference gene with forward primer sequence 5′-[…]-3′ (SEQ ID NO:12) and reverse primer sequence 5′-[…]-3′ (SEQ ID NO:13). The ΔΔCt method was used to correct the Ct values against the HPRT1 Ct values. The values obtained were normalised to the untreated control values which were set to 1. Statistical analysis was carried out using one-way ANOVA with post-hoc Bonferroni for multiple groups comparison (GraphPad Prism V.8, 2018). All data are expressed as mean±SEM from at least three independent experiments with p<0.05 considered significant.

fibroblasts = experiment: Viability of fibroblasts by MTS assay (cytotoxicity); format: cell-based, human
Protocol: FIG. 5. Effect of the endosomal escape domain HA2 and lipidation of peptide-PMO conjugates on the viability of fibroblasts determined using MTS assay. UT, untreated control.
The peptide-PMO conjugates were tested up to 10 μM which is 10-fold greater than the concentration needed to achieve a high level of activity.

[2] = system: SMA patient-derived fibroblasts; experiment: Confocal fluorescence uptake of Cy5-labelled peptide-PMO conjugates in SMA fibroblasts; format: cell-based, human; conditions: 1 μM; for intracellular fluorescence pattern: 1 hr at 37° C.; for cellular uptake on addition of endosomal escape domain HA2: 1 hr, versus counterparts without HA2
Protocol: FIG. 4. Representative confocal fluorescence microscopy images of SMA patient-derived fibroblasts treated with 1 μM of Cy5-labelled: (A) ApoE(141-150)-PMO; (B) HA2-ApoE(141-150)-PMO; (C) ApoE(133-150)-PMO; and (D) HA2-ApoE(133-150)-PMO, for 1 hr at 37° C.
SMA fibroblasts (6.0×10^4 cells/well) were plated onto a p-Slide 4 Well Ph+ Glass Bottom chamber slides precoated with poly-L-ornithine (Ibidi GmbH). After 24 hr, cells were incubated for 1 hr with Cy5-labelled peptide-PMO conjugates (1 μM or 5 μM) diluted in serum free Opti-MEM. At 10 min to end of 1 hr incubation, Hoechst (1:1000 dilution) was added to each well.

[3] = format: in vivo, mice; conditions: 8 mg/kg; dose escalation at 5, 8 and 10 mg/kg; data not shown
SMN2 [4] = experiment: Full-length SMN2 RNA in tissues of transgenic SOD1+/- SMN2+/- mice by RT-qPCR; format: in vivo; conditions: 8 mg/kg/week for 5 weeks, tail vein injection, 7 days after final administration, mean±SEM, versus saline-treated control
Protocol: FIG. 6. SMN upregulation in SOD1^G93A mice. A, administration regime. B, Full length (FL) SMN2 levels in brain, spinal cord (S. cord), kidney and quadriceps (Quad) as determined by RT-qPCR in untreated mice (left hand columns) and mice treated with SEQ ID NO:6-PMO conjugate (right hand columns) after administration at a dose of 8 mg/kg weekly for five weeks. *, p<0.05; **, p<0.001; ***, p<0.0001 cf. saline-treated group.
A peptide consisting of the amino acid sequence of SEQ ID NO:6 was conjugated to the PMO antisense oligonucleotide of SEQ ID NO:9 via a non-reducible thioether (thiol-maleimide) bond as described in Example 1. […] Transgenic SOD1^+/− SMN2^+/− mice (n=5) at P60 were treated with Ac-HA2-ApoE(133-150)-PMO conjugate at 8 mg/kg/week for 5 weeks via tail vein injection. Age-matched control mice (n=6) were given saline. Tissues (brain, spinal cord, kidney and quadriceps) were harvested 7 days after final administration. The level of full-length SMN2 RNA was measured using RT-qPCR as above. The level of full-length SMN2 was normalised to mouse HPRT1 with forward primer sequence 5′-[…]-3′ (SEQ ID NO:14) and reverse primer sequence 5′[…]-3′ (SEQ ID NO:15). Data were expressed as mean±SEM. The statistical significances between saline-treated and Ac-HA2-ApoE(133-150)-PMO-treated groups were determined using the Student's t test. […]

[5] = intrathecal injection; cited from earlier work

Row | Substance | exon-7 inclusion activity, change in words (SMN2 [1]; 0.5 μM and 1 μM, versus comparator) | effect on cell viability (fibroblasts; at 10 μM) | effect on cell viability (fibroblasts; up to 5 μM) | intracellular fluorescence pattern [2] | cellular uptake on addition of endosomal escape domain HA2 [2] | level of exon-7 inclusion activity (full length SMN2/HPRT1, normalised to untreated control set to 1) (SMN2 [1]; 0.5 μM) | level of exon-7 inclusion activity (full length SMN2/HPRT1, normalised to untreated control set to 1) (SMN2 [1]; 1 μM) | tolerability [3] | level of full length SMN2 RNA (normalised to mouse HPRT1) (SMN2 [4]; brain) | level of full length SMN2 RNA (normalised to mouse HPRT1) (SMN2 [4]; spinal cord) | side effects such as postprocedural headache and backpain, share of adult patients [5] [%]
1 | Ac-GLFHAIAHFIHGGWH-X-LRKLRKRLLR-X-C-PMO [HA2-ApoE(141-150)-PMO] | significant increase in the activity | decrease in cell viability | None of the P-PMO conjugates had a significant effect on cell viability | higher fluorescence intensity with a more diffused pattern | significantly enhanced cellular uptake |  |  |  |  |  | 
2 | Ac-GLFHAIAHFIHGGWH-X-LRVRLASHLRKLRKRLLR-X-C-PMO [HA2-ApoE(133-150)-PMO] |  | decrease in cell viability | None of the P-PMO conjugates had a significant effect on cell viability | higher fluorescence intensity with a more diffused pattern | significantly enhanced cellular uptake | 2.02±0.12 | 2.8±0.13 | well-tolerated without any signs of adverse effects | 1.19±0.06 | 1.56±0.1 | 
3 | TCACTTTCATAATGCTGG (chemistry not given here) [Nusinersen, FDA-approved antisense oligonucleotide for the treatment of spinal muscular atrophy] |  |  |  |  |  |  |  |  |  |  | 32
